In US9676997B2, “Compositions and methods for stabilizing luminogenic substrates” (Promega Corporation, priority 2014, dated 2017):
Values belong to the compound of their own block, whether it stands above or below them.

How the values were obtained:
Format in all cases: physicochemical
[1] = Stability of 1.25 mM furimazine in 50% ethanol and 50% propylene glycol with or without 225 mM ATT, in the presence of light, HPLC and Arrhenius plots; conditions: for relative peak area percentage at 262 nm: in the presence of light
Protocol: The stability of furimazine in the presence and absence of ATT was measured over time at different temperatures. This study was conducted in the presence of light. Specifically, 1.25 mM furimazine was present in a solution of 50% ethanol and 50% propylene glycol (i.e., the solution without ATT) or a solution of 50% ethanol and 50% propylene glycol with 225 mM ATT (i.e., the solution with ATT). […]
Following incubation, high performance liquid chromatography (HPLC) was utilized to identify the components of the respective solutions at each time point. Specifically, an Agilent 1100 HPLC instrument was used and equipped with a quaternary pump, thermostatted autosampler and column compartment, and a G1311B diode-array detector. The column used was a Synergi-MAX-RP (Phenomenex, Torrance, Calif.) 100 AÅ 50×4.6 2.5 μm. The run on the HPLC was a gradient run with 0.1% TFA in water and acetonitrile. Absorbance was measured at 262 nanometers (nm). Standards of furimazine and its known degradants were run to confirm both the retention time and absorbance trace. 5 μl of each solution was injected and the retention time of furimazine at room temperature was 5.1 minutes.
The results of the HPLC analysis are shown below in Tables 10 and 11 and FIGS. 4A and 4B, in which the values are reported as relative peak area percentage at 262 nm (i.e., the lamba max of the substrate). […] In each of FIGS. 4A and 4B, diamond is 1.25 mM furimazine incubated over time with or without 225 mM ATT, respectively, at −20° C., triangle is 1.25 mM furimazine incubated over time with or without 225 mM ATT, respectively, at 20° C., star is 1.25 mM furimazine incubated over time with or without 225 mM ATT, respectively, at 40° C., and cross is 1.25 mM furimazine incubated over time with or without 225 mM ATT, respectively, at 60° C.
Additionally, Arrhenius plots were generated for furimazine in the presence and absence of ATT to calculate the half-life of furimazine at various temperatures. The Arrhenius equation is as follows: […]
In FIG. 5, the slope was −10831.4, the intercept was 31.3561, and R^2 was 0.9813.
In FIG. 6, the slope was −10106.2, the intercept was 30.1809, and R^2 was 0.9984.

[2] = Photostability of 1.25 mM furimazine in 50% propylene glycol:50% ethanol with or without 225 mM ATT, HPLC; conditions: for 10% loss / 50% loss: in the light
Protocol: Specifically, a 2× stock solution of ATT in 50% propylene glycol:50% ethanol (v/v) was prepared, in which the final concentration of ATT was 64.4 mg/mL. A 2× stock solution of furimazine in 50% propylene glycol:50% ethanol (v/v) was also prepared, in which the final concentration of furimazine was 0.95 mg/mL. In one vial, the 2×ATT stock solution was diluted 1:1 in the 2×furimazine stock solution to create a solution containing 225 mM ATT and 1.25 mM furimazine. In a second vial, the 2×furimazine stock solution was diluted 1:1 in 50% propylene glycol:50% ethanol (v/v) to create a control solution without the additive ATT (i.e., “no additive furimazine” control) and containing 1.25 mM furimazine.
The content of each vial was dispensed into separate, clear HPLC vials with insert and these HPLC vials were placed at room temperature (i.e., about 20° C.) in the light (i.e., in the presence of overhead fluorescent light) and at 40° C. in the light. There was one HPLC vial per time point for each temperature.
Stability was measured by HPLC with 5 μL injection and detection at 262 nm. In each chromatogram, the area of the furimazine peak was determined. Stability curves were generated by plotting the area (10^6) vs. time (days) and are shown in FIGS. 13A and 13B for room temperature and 40° C., respectively.

[3] = Stability of furimazine at 37° C. in different organic solvents with or without ATT, luminescence with NANOLUC luciferase; conditions: 50% PG:50% ethanol, 60% PG:40% ethanol, 15% glycerol:85% ethanol, 250 or 300 mM ATT vs no ATT
Protocol: To further examine the stabilization of furimazine at 37° C., luminescence was measured after furimazine was incubated in the presence of different organic solvents, namely 50% (v/v) propylene glycol (PG):50% (v/v) ethanol, 60% (v/v) propylene glycol (PG):40% (v/v) ethanol, and 15% (v/v) glycerol:85% (v/v) ethanol.
1.25 mM stocks of furimazine were prepared in the following solutions: a) 50% propylene glycol:50% ethanol, 1.25 mM furimazine, 250 mM ATT; b) 60% propylene glycol:40% ethanol, 1.25 mM furimazine, 300 mM ATT; c) 15% glycerol:85% ethanol, 1.25 mM furimazine, 250 mM ATT; and inventory furimazine (Promega Corporation). Furimazine was first dissolved and then ATT was added. To make 4 mL of each sample, 2 mg furimazine and 143 mg of ATT (250 mM ATT) was added. For 300 mM ATT, 171 mg of ATT was added.
A portion of these samples was aliquoted into amber Starstead tubes with O-rings and then placed at 37° C. […] The remaining sample was placed at −20° C. in a 15 mL tube and monitored for precipitate formation.
Prior to assaying the samples, they were heated to room temperature (RT) and vortexed to ensure that any material that fell out of solution was re-suspended. […] The resulting dilutions were incubated for 3 minutes at RT, and luminescence was detected on a luminometer (GLOMAX Multi plus luminometer, Promega Corporation). […]

Compound: Cc1n[nH]c(=S)[nH]c1=O [ATT, 6-methyl-3-thioxo-3,4-dihydro-1,2,4-triazin-5(2H)-one]
- stabilization of furimazine against decomposition ([1]; 225 mM ATT, over time at different temperatures): stabilized furimazine against decomposition over time at different temperatures
- stabilization of furimazine against decomposition in the presence of light ([2]; 225 mM ATT, room temperature and 40° C.): stabilized furimazine against decomposition in the presence of light at different temperatures

- relative peak area percentage at 262 nm ([1]; 40° C., 0 days): 89.7%
- relative peak area percentage at 262 nm ([1]; 40° C., 1 day): 93.8%
- relative peak area percentage at 262 nm ([1]; 40° C., 5 days): 65%
- relative peak area percentage at 262 nm ([1]; 40° C., 8 days): 50.1%
- relative peak area percentage at 262 nm ([1]; 40° C., 14 days): 27%
- relative peak area percentage at 262 nm ([1]; 40° C., 30 days): 3.5%
- relative peak area percentage at 262 nm ([1]; 40° C., 90 days): 0%
- relative peak area percentage at 262 nm ([1]; 60° C., 0 days): 89.7%
- relative peak area percentage at 262 nm ([1]; 60° C., 1 day): 70.1%
- relative peak area percentage at 262 nm ([1]; 60° C., 5 days): 1.3%^
- relative peak area percentage at 262 nm ([1]; 60° C., 8 days): 0%
- relative peak area percentage at 262 nm ([1]; 60° C., 14 days): 0%
- relative peak area percentage at 262 nm ([1]; 60° C., 30 days): 0%
- relative peak area percentage at 262 nm ([1]; 60° C., 90 days): 0%
- relative peak area percentage at 262 nm ([1]; RT (20° C.), 0 days): 89.7%
- relative peak area percentage at 262 nm ([1]; RT (20° C.), 1 day): 97.2%
- relative peak area percentage at 262 nm ([1]; RT (20° C.), 5 days): 93.8%
- relative peak area percentage at 262 nm ([1]; RT (20° C.), 8 days): 91.7%
- relative peak area percentage at 262 nm ([1]; RT (20° C.), 14 days): 86.7%
- relative peak area percentage at 262 nm ([1]; RT (20° C.), 30 days): 74.8%
- relative peak area percentage at 262 nm ([1]; RT (20° C.), 90 days): 27.1%
- relative peak area percentage at 262 nm ([1]; −20° C., 0 days): 89.7%
- relative peak area percentage at 262 nm ([1]; −20° C., 1 day): 98.3%
- relative peak area percentage at 262 nm ([1]; −20° C., 5 days): 96.9%
- relative peak area percentage at 262 nm ([1]; −20° C., 8 days): 98.2%
- relative peak area percentage at 262 nm ([1]; −20° C., 14 days): 97.7%
- relative peak area percentage at 262 nm ([1]; −20° C., 30 days): 98.3%
- relative peak area percentage at 262 nm ([1]; −20° C., 90 days): 95.3%
- 10% loss ([2]; 40° C.): 0.4 days
- 50% loss ([2]; 40° C.): 3.6 days
- 10% loss ([2]; room temperature): 0.5 days
- 50% loss ([2]; room temperature): 2.1 days
Compound: O=c1c(Cc2ccco2)nc2c(Cc3ccccc3)[nH]c(-c3ccccc3)cn1-2 [Furimazine, furimazine]
- Arrhenius plot intercept ([1]; decomposition of furimazine): 30.1809
- Arrhenius plot slope ([1]; decomposition of furimazine): −10106.2
- stability of furimazine (normalized RLUs over time) [3]: more stable in the presence of ATT than in the absence of ATT for each organic solvent
